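These data come from cells grown in 96-well plates and exposed to compound for 48 hours at five concentrations. GI50 = concentration required for 50% inhibition of growth.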 Active and inactive are the calls of the source. Cut-off read from the data, not from the text of the source: active = GI50 up to about 1.1 µM and inactive = higher.
Assays:
Experiment in all cases: NCI anticancer screen, dose series, 48 h
BT-549 = system: BT-549
NCI-H23 = system: NCI-H23
CCRF-CEM = system: CCRF-CEM
COLO 205 = system: COLO 205
Malme-3M = system: Malme-3M
SF-539 = system: SF-539
SNB-75 = system: SNB-75
SK-MEL-28 = system: SK-MEL-28
OVCAR-5 = system: OVCAR-5
SW-620 = system: SW-620
HCT-15 = system: HCT-15
K562 = system: K562
TK-10 = system: TK-10
U-251 = system: U-251
A549 = system: A549
HCC 2998 = system: HCC 2998
NCI-H226 = system: NCI-H226
SNB-19 = system: SNB-19
UACC-257 = system: UACC-257
SF-295 = system: SF-295
SF-268 = system: SF-268
UO-31 = system: UO-31
OVCAR-8 = system: OVCAR-8
786-0 = system: 786-0
SK-MEL-2 = system: SK-MEL-2
SR = system: SR
HT-29 = system: HT-29
HCT-116 = system: HCT-116
MOLT-4 = system: MOLT-4
OVCAR-3 = system: OVCAR-3
HL-60 = system: HL-60
Hs-578T = system: Hs-578T
MCF7 = system: MCF7
OVCAR-4 = system: OVCAR-4
M14 = system: M14
MDA-N = system: MDA-N
ACHN = system: ACHN
KM12 = system: KM12
SK-MEL-5 = system: SK-MEL-5
T47D = system: T47D
NCI/ADR-RES = system: NCI/ADR-RES
MDA-MB-435 = system: MDA-MB-435
RXF 393 = system: RXF 393
RPMI-8226 = system: RPMI-8226
CAKI-1 = system: CAKI-1
LOX IMVI = system: LOX IMVI
SK-OV-3 = system: SK-OV-3
HOP-92 = system: HOP-92
NCI-H460 = system: NCI-H460
EKVX = system: EKVX
UACC-62 = system: UACC-62
PC-3 = system: PC-3
MDA-MB-231 = system: MDA-MB-231
A498 = system: A498
SN12C = system: SN12C
IGROV-1 = system: IGROV-1
DU-145 = system: DU-145
HOP-62 = system: HOP-62
NCI-H522 = system: NCI-H522

CC(=O)CC(=O)N1CCOC1=O
GI50 (BT-549): > 10 µM (inactive)
GI50 (NCI-H23): > 10 µM (inactive)
GI50 (CCRF-CEM): > 10 µM (inactive)
GI50 (COLO 205): > 10 µM (inactive)
GI50 (Malme-3M): > 10 µM (inactive)
GI50 (SF-539): > 10 µM (inactive)
GI50 (SNB-75): 5.26 µM (inactive)
GI50 (SK-MEL-28): > 10 µM (inactive)
GI50 (OVCAR-5): > 10 µM (inactive)
GI50 (SW-620): > 10 µM (inactive)
GI50 (HCT-15): > 10 µM
GI50 (K562): > 10 µM (inactive)
GI50 (TK-10): > 10 µM (inactive)
GI50 (U-251): > 10 µM (inactive)
GI50 (A549): > 10 µM (inactive)
GI50 (HCC 2998): > 10 µM (inactive)
GI50 (NCI-H226): > 10 µM (inactive)
GI50 (SNB-19): > 10 µM (inactive)
GI50 (UACC-257): > 10 µM (inactive)
GI50 (SF-295): > 10 µM (inactive)
GI50 (SF-268): > 10 µM (inactive)
GI50 (UO-31): > 10 µM (inactive)
GI50 (OVCAR-8): > 10 µM (inactive)
GI50 (786-0): > 10 µM (inactive)
GI50 (SK-MEL-2): > 10 µM (inactive)
GI50 (SR): > 10 µM (inactive)
GI50 (HT-29): > 10 µM (inactive)
GI50 (HCT-116): > 10 µM (inactive)
GI50 (MOLT-4): > 10 µM (inactive)
GI50 (OVCAR-3): > 10 µM (inactive)
GI50 (HL-60): > 10 µM (inactive)
GI50 (Hs-578T): > 10 µM (inactive)
GI50 (MCF7): > 10 µM (inactive)
GI50 (OVCAR-4): > 10 µM (inactive)
GI50 (M14): > 10 µM (inactive)
GI50 (MDA-N): > 10 µM (inactive)
GI50 (ACHN): > 10 µM (inactive)
GI50 (KM12): > 10 µM (inactive)
GI50 (SK-MEL-5): > 10 µM (inactive)
GI50 (T47D): > 10 µM (inactive)
GI50 (NCI/ADR-RES): > 10 µM (inactive)
GI50 (MDA-MB-435): > 10 µM (inactive)
GI50 (RXF 393): > 10 µM (inactive)
GI50 (RPMI-8226): > 10 µM (inactive)
GI50 (CAKI-1): > 10 µM (inactive)
GI50 (LOX IMVI): > 10 µM (inactive)
GI50 (SK-OV-3): > 10 µM (inactive)
GI50 (HOP-92): > 10 µM (inactive)
GI50 (NCI-H460): > 10 µM (inactive)
GI50 (EKVX): > 10 µM (inactive)
GI50 (UACC-62): > 10 µM (inactive)
GI50 (PC-3): > 10 µM (inactive)
GI50 (MDA-MB-231): > 10 µM (inactive)
GI50 (A498): > 10 µM (inactive)
GI50 (SN12C): > 10 µM (inactive)
GI50 (IGROV-1): > 10 µM (inactive)
GI50 (DU-145): > 10 µM (inactive)
GI50 (HOP-62): > 10 µM (inactive)

CCCC(=O)OCC1OC(n2cc(F)c(=O)[nH]c2=O)CC1OC(=O)CCC (centres undefined)
GI50 (BT-549): 0.376 µM (active)
GI50 (NCI-H23): 0.278 µM (active)
GI50 (CCRF-CEM): 0.0295 µM (active)
GI50 (COLO 205): > 6.5 µM (inactive)
GI50 (Malme-3M): > 6.43 µM (inactive)
GI50 (SF-539): 0.00511 µM (active)
GI50 (SK-MEL-28): > 6.68 µM (inactive)
GI50 (OVCAR-5): > 10 µM (inactive)
GI50 (SW-620): > 10 µM (inactive)
GI50 (HCT-15): > 4.41 µM
GI50 (K562): 1.16 µM (inactive)
GI50 (TK-10): 2.25 µM (inactive)
GI50 (NCI-H522): 5.22 µM (inactive)
GI50 (U-251): 3.26 µM (inactive)
GI50 (A549): 0.0578 µM (active)
GI50 (HCC 2998): 0.0113 µM (active)
GI50 (NCI-H226): 5.53 µM (inactive)
GI50 (UACC-257): 3.79 µM (inactive)
GI50 (SF-295): 0.127 µM (active)
GI50 (SF-268): 0.0368 µM (active)
GI50 (UO-31): 0.13 µM (active)
GI50 (OVCAR-8): 0.203 µM (active)
GI50 (786-0): 0.434 µM (active)
GI50 (SK-MEL-2): > 10 µM (inactive)
GI50 (SR): 0.034 µM (active)
GI50 (HCT-116): 0.524 µM (active)
GI50 (MOLT-4): 4.63 µM (inactive)
GI50 (OVCAR-3): 1.67 µM (inactive)
GI50 (HL-60): 0.247 µM (active)
GI50 (Hs-578T): 2.32 µM (inactive)
GI50 (MCF7): 0.0169 µM (active)
GI50 (OVCAR-4): > 10 µM (inactive)
GI50 (M14): 0.312 µM (active)
GI50 (MDA-N): 1.25 µM (inactive)
GI50 (ACHN): 0.0441 µM (active)
GI50 (KM12): > 5.02 µM (inactive)
GI50 (SK-MEL-5): 0.279 µM (active)
GI50 (T47D): > 6.15 µM (inactive)
GI50 (NCI/ADR-RES): 1.55 µM (inactive)
GI50 (MDA-MB-435): 3.95 µM (inactive)
GI50 (RXF 393): > 9.2 µM (inactive)
GI50 (RPMI-8226): 0.973 µM (active)
GI50 (CAKI-1): 0.183 µM (active)
GI50 (LOX IMVI): 0.0236 µM (active)
GI50 (SK-OV-3): > 2.93 µM (inactive)
GI50 (HOP-92): 0.509 µM (active)
GI50 (NCI-H460): 0.119 µM (active)
GI50 (EKVX): > 10 µM (inactive)
GI50 (UACC-62): 0.177 µM (active)
GI50 (PC-3): 1.55 µM (inactive)
GI50 (MDA-MB-231): > 10 µM (inactive)
GI50 (A498): 0.484 µM (active)
GI50 (SN12C): 0.346 µM (active)
GI50 (IGROV-1): > 10 µM (inactive)
GI50 (DU-145): 0.156 µM (active)
GI50 (HOP-62): 0.0684 µM (active)

From ChEMBL document CHEMBL1201862, “PubChem BioAssay data set” (2004)
